Assay results from article PMC3466269, “A Comprehensive Strategy to Discover Inhibitors of the Translesion Synthesis DNA Polymerase κ” (PLoS ONE, 2012).

Molecular target: T1, Yeast pol δ (Saccharomyces cerevisiae, UniProt P15436)
T1 sequence (P15436 1-1097): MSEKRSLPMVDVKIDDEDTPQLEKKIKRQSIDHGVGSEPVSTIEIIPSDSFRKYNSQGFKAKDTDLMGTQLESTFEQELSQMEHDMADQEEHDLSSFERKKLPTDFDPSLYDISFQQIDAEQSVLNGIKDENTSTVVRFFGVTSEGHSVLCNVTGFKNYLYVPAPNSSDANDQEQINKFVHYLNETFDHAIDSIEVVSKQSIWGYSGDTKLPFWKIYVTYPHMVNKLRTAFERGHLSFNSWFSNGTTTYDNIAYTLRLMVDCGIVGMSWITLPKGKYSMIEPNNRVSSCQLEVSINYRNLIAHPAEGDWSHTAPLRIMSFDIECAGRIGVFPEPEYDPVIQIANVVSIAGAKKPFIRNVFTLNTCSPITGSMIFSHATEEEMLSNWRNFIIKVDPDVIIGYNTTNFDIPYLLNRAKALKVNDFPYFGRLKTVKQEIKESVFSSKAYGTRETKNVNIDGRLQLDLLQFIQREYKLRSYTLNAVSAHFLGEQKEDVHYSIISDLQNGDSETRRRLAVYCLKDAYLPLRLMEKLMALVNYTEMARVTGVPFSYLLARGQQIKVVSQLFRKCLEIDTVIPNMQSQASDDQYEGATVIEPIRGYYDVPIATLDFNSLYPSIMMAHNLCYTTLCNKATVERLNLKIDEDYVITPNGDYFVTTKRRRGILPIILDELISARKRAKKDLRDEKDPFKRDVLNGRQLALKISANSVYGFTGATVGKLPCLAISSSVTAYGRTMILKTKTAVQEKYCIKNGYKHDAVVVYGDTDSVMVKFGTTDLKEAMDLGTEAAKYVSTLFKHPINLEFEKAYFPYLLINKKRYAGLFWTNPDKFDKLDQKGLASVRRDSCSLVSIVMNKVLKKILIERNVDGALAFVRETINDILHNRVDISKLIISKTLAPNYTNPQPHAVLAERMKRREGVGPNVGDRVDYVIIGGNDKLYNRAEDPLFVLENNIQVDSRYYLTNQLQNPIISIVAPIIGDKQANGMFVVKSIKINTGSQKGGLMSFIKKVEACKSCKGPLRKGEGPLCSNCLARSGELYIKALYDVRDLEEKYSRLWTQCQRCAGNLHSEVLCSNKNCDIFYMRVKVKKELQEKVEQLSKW
T1 sequence (P46957 1-487 partner): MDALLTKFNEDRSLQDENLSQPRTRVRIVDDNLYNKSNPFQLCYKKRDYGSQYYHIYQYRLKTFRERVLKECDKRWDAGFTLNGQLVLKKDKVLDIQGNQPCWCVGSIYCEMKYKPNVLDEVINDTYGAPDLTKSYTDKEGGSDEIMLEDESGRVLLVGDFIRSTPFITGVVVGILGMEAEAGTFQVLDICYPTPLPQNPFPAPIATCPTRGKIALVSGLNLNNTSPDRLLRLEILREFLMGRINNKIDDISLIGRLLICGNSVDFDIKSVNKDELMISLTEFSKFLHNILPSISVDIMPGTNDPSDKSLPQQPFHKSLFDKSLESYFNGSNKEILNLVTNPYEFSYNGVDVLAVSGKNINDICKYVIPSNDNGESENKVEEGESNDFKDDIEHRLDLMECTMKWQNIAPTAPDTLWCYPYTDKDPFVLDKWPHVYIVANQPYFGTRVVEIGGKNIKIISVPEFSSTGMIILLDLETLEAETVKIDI
T1 sequence (P47110 1-350 partner): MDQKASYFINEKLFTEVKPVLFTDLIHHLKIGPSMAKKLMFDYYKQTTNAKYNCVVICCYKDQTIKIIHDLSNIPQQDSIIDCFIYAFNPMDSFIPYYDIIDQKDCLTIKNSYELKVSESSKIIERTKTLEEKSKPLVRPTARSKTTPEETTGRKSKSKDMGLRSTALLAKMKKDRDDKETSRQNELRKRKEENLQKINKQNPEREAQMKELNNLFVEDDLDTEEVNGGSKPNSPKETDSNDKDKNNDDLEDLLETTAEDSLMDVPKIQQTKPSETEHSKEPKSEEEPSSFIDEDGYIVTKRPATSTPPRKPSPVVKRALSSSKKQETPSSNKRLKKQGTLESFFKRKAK
Test: Radioactive gel-based primer extension assay, pol δ
Assay type: biochemical
Protocol: The reactions with pol κ, pol η, and pol ι were carried out in the buffers containing 25 mM Tris-HCl, pH 7.5, 8 mM MgCl2, 10% glycerol, 100 µg/mL bovine serum albumin, and 5 mM DTT. Buffers for pol δ reactions contained 40 mM Hepes-KOH, pH 6.8, 10% glycerol, 200 µg/mL bovine serum albumin, 1 mM DTT, and 8 mM MgCl2. Final concentration of pol κ, pol η, pol ι, or pol δ in the reaction was 0.25 nM, 1 nM, 2.5 nM, or 4 nM, respectively. In this assay, a polymerase was preincubated with the compound for 15 min at room temperature. Primer extensions were then initiated by the addition of DNA substrate at final concentration of 5 nM and carried out for 30 min at room temperature in the presence of 100 µM dCTP and dGTP. The reactions were terminated by the addition of an equal volume of a dye solution containing 95% (v/v) formamide, 10 mM EDTA, 0.03% (w/v) xylene cyanol, and 0.03% (w/v) bromphenol blue. Reaction products were separated through a 15% acrylamide gel containing 8 M urea and visualized with a PhosphorImager screen. The ratio of extended primer to the total amount of primer was measured using ImageQuant 5.2 software to calculate the percentage of primer extended. IC50 values were determined by fitting the data to variable slope four-parameter equations using GraphPad Prism 5. […]

Compound: CCOc1nc2cccc(C(=O)OC(C)OC(=O)OC3CCCCC3)c2n1Cc1ccc(-c2ccccc2-c2nnn[nH]2)cc1 (centres unmarked) [candesartan cilexetil, Candesartan cilexetil]
- IC50 pol δ (maximum concentration 80 µM): could not be determined
- Inhibition of pol δ DNA synthesis (several concentrations, maximum 80 µM, data not shown): only at 80 µM concentration was there detectable inhibition
